Reference: patent publication US8436138B2, “Binder for C-reactive protein” (Modpro AB, priority 2006, dated 2013)

Test: Stability in aqueous solution
Assay type: physicochemical
Details: acidic pH (0.1% TFA)
Source text: Commercially available aminohexanoic acid 2 was N,N-dimethylated^11 12 by an Eschweiler-Clarke-type procedure (treatment with formaldehyde and hydrogen/palladium/carbon), and the resulting product (3, 86%) was esterified by treatment with methanolic hydrogen chloride to give the methyl ester 4 (96%). Quartenarization was effected by reacting 4 with monomethoxytrityl-protected bromoethanol 1, forming derivative 5 (73%). Unprotected bromoethanol could also be reacted with 4, but the reaction yield was lower and the product was more difficult to detect and purify. Monomethoxytrityl protection conferred lipophilicity and TLC detectability (UV visible and acid stainable) to the crucial intermediate 5. Saponification of 5 with lithium hydroxide/water/t-butanol gave the corresponding acid 6 (95%), which was treated without isolation with p-nitrophenol and diisopropyl carbodiimide in pyridine to give the p-nitrophenyl ester 7 (86%). Brief treatment of 7 with formic acid gave the corresponding alcohol 8, which was used directly in the next step, because of its sensitivity to self-condensation. Reaction of crude 8 at 0° C. in acetonitril with first an excess of phosphorous oxychloride and triethylamine, then water gave the desired monophosphate 9 in 22% yield from 7, after HPLC purification. […]

Compound: C[N+](C)(CCCCCC(=O)Oc1ccc([N+](=O)[O-])cc1)CCOP(=O)([O-])O [Peptide 9, 6-(N,N-Dimethylamino)-N-[(2-phosphoryloxy)-ethyl]-hexanoic acid p-nitrophenyl ester]
- stability in aqueous solution: stable
